{"source": "PubChem BioAssay AID434972", "about": "(The Scripps Research Institute Molecular Screening Center, 2010)", "note": "Calls of active or inactive are those of the source.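 Rule for the calls: active = inhibition of WEE1 degradation of at least 19%, seen as raised luminescence; inactive = the rest.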", "data": [{"target": "Wee1-like protein kinase (Homo sapiens) (UniProt P30291)", "sequence (P30291 whole entry K328M)": "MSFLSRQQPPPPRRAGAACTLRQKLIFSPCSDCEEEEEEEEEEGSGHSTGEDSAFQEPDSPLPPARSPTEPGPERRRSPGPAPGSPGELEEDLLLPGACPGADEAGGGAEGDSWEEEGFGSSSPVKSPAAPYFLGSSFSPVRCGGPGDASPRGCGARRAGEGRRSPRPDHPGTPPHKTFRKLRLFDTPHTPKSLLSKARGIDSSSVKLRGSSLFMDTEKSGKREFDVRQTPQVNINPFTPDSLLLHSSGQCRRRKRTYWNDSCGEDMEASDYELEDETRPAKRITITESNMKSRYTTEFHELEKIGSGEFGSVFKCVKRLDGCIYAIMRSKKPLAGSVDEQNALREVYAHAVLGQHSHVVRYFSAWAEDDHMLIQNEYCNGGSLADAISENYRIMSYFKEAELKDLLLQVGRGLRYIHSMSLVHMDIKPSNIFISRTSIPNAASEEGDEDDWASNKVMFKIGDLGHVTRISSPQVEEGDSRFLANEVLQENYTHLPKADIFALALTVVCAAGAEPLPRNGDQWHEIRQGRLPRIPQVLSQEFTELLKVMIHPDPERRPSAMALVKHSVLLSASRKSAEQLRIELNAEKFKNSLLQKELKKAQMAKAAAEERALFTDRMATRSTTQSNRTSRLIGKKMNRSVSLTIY", "experiment": "Wee1 degradation inhibition by kinase inhibitors, SAR follow-up, cell-based, HeLa, WEE1K328M-luciferase, luminescence, powder samples (AID 434972)", "conditions": "HeLa WEE1K328M-luciferase stability, at 0.25 µM, stronger effect = higher value", "values": [{"smiles": "C=CCN(CC=C)c1nc(NCc2nc3ccccc3[nH]2)c2ncn(-c3ccsc3)c2n1", "inhibition of WEE1 degradation": "8.2% (inactive)"}, {"smiles": "CCOC(=O)c1cccc2[nH]c(CNc3nc(N4CCOCC4)nc4c3ncn4-c3ccsc3)nc12", "inhibition of WEE1 degradation": "97.3%"}, {"smiles": "c1ccc2[nH]c(CNc3nc(N4CCOCC4)nc4c3ncn4-c3ccsc3)nc2c1", "inhibition of WEE1 degradation": "56.8%"}, {"smiles": "N#Cc1ccc2nc(CNc3nc(N4CCOCC4)nc4c3ncn4-c3ccsc3)[nH]c2c1", "inhibition of WEE1 degradation": "85.9%"}, {"smiles": "COc1ccc2nc(CNc3nc(N4CCOCC4)nc4c3ncn4-c3ccsc3)[nH]c2c1", "inhibition of WEE1 degradation": "79.5%"}, {"smiles": "CN1CCN(c2nc(NCc3nc4ccccc4[nH]3)c3ncn(-c4ccsc4)c3n2)CC1", "inhibition of WEE1 degradation": "14.1% (inactive)"}, {"smiles": "O=[N+]([O-])c1cccc2[nH]c(CNc3nc(N4CCOCC4)nc4c3ncn4-c3ccsc3)nc12", "inhibition of WEE1 degradation": "100%"}, {"smiles": "c1ccc(N2CCN(c3nc(NCc4nc5ccccc5[nH]4)c4ncn(-c5ccsc5)c4n3)CC2)nc1", "inhibition of WEE1 degradation": "4% (inactive)"}, {"smiles": "c1ccc2[nH]c(CNc3nc(N4CCCC4)nc4c3ncn4-c3ccsc3)nc2c1", "inhibition of WEE1 degradation": "9.9% (inactive)"}, {"smiles": "FC(F)(F)c1ccc2nc(CNc3nc(N4CCOCC4)nc4c3ncn4-c3ccsc3)[nH]c2c1", "inhibition of WEE1 degradation": "46.3%"}, {"smiles": "c1ccc2[nH]c(CNc3nc(NCCN4CCOCC4)nc4c3ncn4-c3ccsc3)nc2c1", "inhibition of WEE1 degradation": "8.1% (inactive)"}, {"smiles": "O=C(NC1CC1)c1ccc(-c2nc(NCc3nc4ccccc4[nH]3)c3ncn(-c4ccsc4)c3n2)cc1", "inhibition of WEE1 degradation": "3.6% (inactive)"}, {"smiles": "CC(C)n1cnc2c(NCc3nc4ccccc4[nH]3)nc(Nc3cnccn3)nc21", "inhibition of WEE1 degradation": "5.3% (inactive)"}, {"smiles": "CC(C)n1cnc2c(NCc3nc4ccccc4[nH]3)nc(Nc3ccncn3)nc21", "inhibition of WEE1 degradation": "4% (inactive)"}, {"smiles": "Nc1cccc2[nH]c(CNc3nc(N4CCOCC4)nc4c3ncn4-c3ccsc3)nc12", "inhibition of WEE1 degradation": "15.6% (inactive)"}, {"smiles": "C[C@@H](Nc1nc(NCc2nc3ccccc3[nH]2)c2ncn(-c3ccsc3)c2n1)c1ccccc1", "inhibition of WEE1 degradation": "9.2% (inactive)"}, {"smiles": "O=[N+]([O-])c1ccc2nc(CNc3nc(N4CCOCC4)nc4c3ncn4-c3ccsc3)[nH]c2c1", "inhibition of WEE1 degradation": "18.7% (inactive)"}, {"smiles": "CC(C)n1cnc2c(NCc3nc4ccccc4[nH]3)nc(N3CCOCC3)nc21", "inhibition of WEE1 degradation": "4.1% (inactive)"}, {"smiles": "Clc1ccc2nc(CNc3nc(N4CCOCC4)nc4c3ncn4-c3ccsc3)[nH]c2c1", "inhibition of WEE1 degradation": "101%"}, {"smiles": "Nc1ccc2nc(CNc3nc(N4CCOCC4)nc4c3ncn4-c3ccsc3)[nH]c2c1", "inhibition of WEE1 degradation": "8.3% (inactive)"}, {"smiles": "c1ccc2[nH]c(CNc3nc(Nc4cnccn4)nc4c3ncn4-c3ccsc3)nc2c1", "inhibition of WEE1 degradation": "2.9% (inactive)"}, {"smiles": "FC(F)(F)c1cc(Br)c2nc(CNc3nc(N4CCOCC4)nc4c3ncn4-c3ccsc3)[nH]c2c1", "inhibition of WEE1 degradation": "13.4% (inactive)"}, {"smiles": "c1ccc2c(c1)CCN2c1nc(NCc2nc3ccccc3[nH]2)c2ncn(-c3ccsc3)c2n1", "inhibition of WEE1 degradation": "7.9% (inactive)"}, {"smiles": "c1ccc2[nH]c(CNc3nc(N4CCNCC4)nc4c3ncn4-c3ccsc3)nc2c1", "inhibition of WEE1 degradation": "14.5% (inactive)"}, {"smiles": "c1ccc2cc3[nH]c(CNc4nc(N5CCOCC5)nc5c4ncn5-c4ccsc4)nc3cc2c1", "inhibition of WEE1 degradation": "48.3%"}, {"smiles": "c1ccc2[nH]c(CNc3nc(N4CCCCC4)nc4c3ncn4-c3ccsc3)nc2c1", "inhibition of WEE1 degradation": "10.5% (inactive)"}, {"smiles": "CC(C)n1cnc2c(NCc3nc4ccccc4[nH]3)nc(Nc3cccnc3)nc21", "inhibition of WEE1 degradation": "3.4% (inactive)"}, {"smiles": "OCCN1CCN(c2nc(NCc3nc4ccccc4[nH]3)c3ncn(-c4ccsc4)c3n2)CC1", "inhibition of WEE1 degradation": "10% (inactive)"}, {"smiles": "FC(F)(F)c1cccc2[nH]c(CNc3nc(N4CCOCC4)nc4c3ncn4-c3ccsc3)nc12", "inhibition of WEE1 degradation": "10.8% (inactive)"}, {"smiles": "NCCN1CCN(c2nc(NCc3nc4ccccc4[nH]3)c3ncn(-c4ccsc4)c3n2)CC1", "inhibition of WEE1 degradation": "8.6% (inactive)"}, {"smiles": "CCOC(=O)c1cccc2[nH]c(CNc3nc(N4CCOCC4)nc4c3ncn4C(C)C)nc12", "inhibition of WEE1 degradation": "17% (inactive)"}, {"smiles": "c1ccc2[nH]c(CNc3nc(N4CCSCC4)nc4c3ncn4-c3ccsc3)nc2c1", "inhibition of WEE1 degradation": "11.4% (inactive)"}, {"smiles": "c1ccc(-n2cnc3c(NCc4nc5ccccc5[nH]4)nc(N4CCOCC4)nc32)cc1", "inhibition of WEE1 degradation": "4% (inactive)"}, {"smiles": "Cc1ccnc(NC(=O)CCCOc2cc(=O)n(C)c3ccccc23)c1", "inhibition of WEE1 degradation": "6.4% (inactive)"}, {"smiles": "CC(C)n1cnc2c(NCc3nc4c([N+](=O)[O-])cccc4[nH]3)nc(N3CCOCC3)nc21", "inhibition of WEE1 degradation": "111%"}, {"smiles": "Fc1ccc2nc(CNc3nc(N4CCOCC4)nc4c3ncn4-c3ccsc3)[nH]c2c1", "inhibition of WEE1 degradation": "81.4%"}, {"smiles": "c1cnc2ccc3[nH]c(CNc4nc(N5CCOCC5)nc5c4ncn5-c4ccsc4)nc3c2c1", "inhibition of WEE1 degradation": "22%"}]}]}
